Test results from patent US20110319485A1, “Composition Having Anti-Helicobacter Pylori Activity And Its Application To Inhibit Helicobacter Pylori” (Yushen Biotechnology & Medical Co, Ltd., priority 2010, published 2011).
In brackets after ≈: the same amount, converted by molar mass. Like-named read-outs stand apart in the source and are kept apart here. Marks after values point to notes of the source that are not given here.

Legend:
[1] = tested on: Helicobacter pylori BCRC 17027 strain; test: Minimum inhibitory concentration (MIC), agar-dilution method; assay type: cell-based; conditions: BCRC17027, agar dilution assay, TSA with 5% sheep blood, 72 hours, 37° C.
Description: H. pylori BCRC 17027 was obtained from the Bioresources Collection and Research Center (BCRC), Hsinchu, Taiwan, ROC. The H. pylori strain was cultured in 5 mL tryptic soy broth (TSB, each liter containing: 17 g peptone from casein, 3 g peptone from soymeal, 2.5 g dextrose, 5 g sodium chloride, 2.5 g dipotassium phosphate, pH 7.3) with a tryptic soy agar (TSA, each liter containing: 15 g peptone from casein, 5 g peptone from soymeal, 5 g sodium chloride, 15 g agar, pH 7.3) and slant containing 5% (v/v) of defibrinated sheep blood formed at the bottom of the test tube.
The broth was incubated in a microaerophilic jar system (BBL), featuring a gas composition of 5% O2, 10% CO2 and 85% N2 (BD GasPak™ EZ Gas Generating systems), at 37° C. for 72 hours. The cell suspension was then diluted with TSB to provide a cell concentration of 3×10^8 CFUs/mL for antimicrobial testing.
The MIC of the purified substance was determined by the agar-dilution method (Shungu et al., 1987, Antimicrob Agents Chemother, 31: 949-950). A volume of 40 μL of cell suspension (initial bacterial count 3×10^8 CFUs/mL) was spread onto the TSA agar plates containing 5% (v/v) defibrinated sheep blood. […] DMSO was used as control. Metronidazole (MTZ) and clarithromycin (CLA) were co-assayed as the positive reference at concentrations of 8.0-128.0 μg/mL and 0.008-0.128 μg/mL, respectively. Following incubation in a microaerophilic jar system, featuring a gas composition of 5% O2, 10% CO2 and 85% N2, at 37° C. for 72 hours, the colonies that had formed on the plates were enumerated. The MIC was defined as the minimum concentration of the test sample (antibacterial agent) in a given culture medium on which bacteria are not able to form colonies.

H. pylori BCRC 17027 = test: Inhibitory-zone measurement (agar well diffusion assay); assay type: cell-based, Helicobacter pylori; conditions: for zone of inhibition at 40000 µg/mL: Helicobacter pylori, BCRC17027, 72 h, read-out: The diameter of inhibitory-zone
Description: H. pylori BCRC 17027 was obtained from the Bioresources Collection and Research Center (BCRC), Hsinchu, Taiwan, ROC. […] The cell suspension was then diluted with TSB to provide a cell concentration of 3×10^8 CFUs/mL for antimicrobial testing. An agar well diffusion assay was used to determine if H. pylori was susceptible to the anti-bacterial activity of the various fractions and isolates (al Somal et al., 1994, J R Soc Med, 87: 9-12). A volume of 100 μL for each of the bacterial suspensions tested (3×10^8 CFUs/mL) was spread onto the TSA agar plate containing 5% (v/v) defibrinated sheep blood. Wells sized 7 mm in diameter were punched on the plates with 5 μL of the Fr1-Fr5 and ovatodiolide (40 mg/mL; DMSO as solvent) to be individually incorporated into the wells. DMSO was used as negative control and metronidazole (MTZ, 40 mg/mL) was used as positive control.

[2] = tested on: Helicobacter pylori BCRC 17027 strain; test: Minimum bactericidal concentration (MBC), broth dilution; assay type: cell-based; conditions: broth dilution assay, 1 hour exposure in Brucella broth, then plated 72 hours, means of three experiments
Helicobacter pylori = conditions: A Vasquez et al., 1996; cited from earlier work
[3] = 5 μL of 40 mg/mL in DMSO per 7 mm well (200 μg/disk), 72 hours, 37° C., microaerophilic, mean±S.D.
[4] = Helicobacter pylori, BCRC17027, read-out: MBC

| MIC [1] [µg/mL] | Structure (SMILES) | zone of inhibition at 40000 µg/mL (H. pylori BCRC 17027; [3]) [mm] | Anti-Helicobacter pylori activity in inhibitory-zone assay (in words) (H. pylori BCRC 17027; agar well diffusion) | MBC [2, 4] [µg/mL] | minimum inhibitory concentration of known antibiotics (Helicobacter pylori) [µg/mL] | The diameter of inhibitory-zone (H. pylori BCRC 17027; [3]) [mm] | MBC [2] |
| --- | --- | --- | --- | --- | --- | --- | --- |
| 64 (≈ 374 µM) | Cc1ncc([N+](=O)[O-])n1CCO [Metronidazole] | 21.8 ± 3.1 | inhibition halos smaller than ovatodiolide | 2560 (≈ 15000 µM) | 64 |  |  |
| 0.032 (≈ 0.0428 µM) | CC[C@H]1OC(=O)[C@H](C)[C@@H](O[C@H]2C[C@@](C)(OC)[C@@H](O)[C@H](C)O2)[C@H](C)[C@@H](O[C@@H]2O[C@H](C)C[C@H](N(C)C)[C@H]2O)[C@](C)(OC)C[C@@H](C)C(=O)[C@H](C)[C@@H](O)[C@]1(C)O [Clarithromycin] |  |  | 1 (≈ 1.34 µM) | 0.25 |  |  |
| 16 (≈ 48.7 µM) | C=C1C(=O)OC2/C=C(\C)C[C@H]3C=C(CC/C=C(\C)CC[C@H]12)C(=O)O3 (stereo partly shown) [Ovatodiolide, ovatodiolide] | 34 |  | 80 (≈ 244 µM) |  | 34.4 ± 2.0 | 80^b μg/mL |
